In patent publication EP0326331B1, “Substituted quinolines and cinnolines” (Dow AgroSciences LLC, priority 1988, dated 1989):
Where two headings read alike, the source gives them in different places.

Key:
Assay type in all cases: in vivo
[1] = test system: Puccinia recondita tritici (leaf rust); assay: Test 1 greenhouse foliar spray screen, leaf rust on wheat; conditions: disease control rating, foliar spray on wheat, 400 ppm (+++ at 100 ppm)
[2] = test system: melon aphids (Aphis gossypii Glover); assay: Mite/insect screen, MA; conditions: Aphis gossypii, read-out: MA RESULTS %; for mortality at 400 ppm: SM & MA RATE 400 PPM
Method in brief: (§1)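 First, each compound was dissolved in an emulsifier-containing acetone/alcohol mixture and diluted with water. Next, leaves were sprayed until runoff and left to dry for an hour. For southern armyworm, two excised uninfested leaves went into a Petri dish with larvae; percent mortality followed standard exposure periods.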

[3] = test system: southern armyworm (Spodopetra eridania Cramer); assay: Mite/insect screen, SAW; conditions: Spodoptera eridania, read-out: SAW RESULTS %; for mortality at 400 ppm: SM & MA RATE 400 PPM
Method in brief: as §1

[4] = test system: Septoria tritici (leaf blotch); assay: Test 1 greenhouse foliar spray screen, leaf blotch on wheat; conditions: disease control rating, foliar spray on wheat, 400 ppm (+++ at 100 ppm)
[5] = test system: Pyricularia oryzae (rice blast); assay: whole plant or invertebrate; conditions: disease control rating, foliar spray on rice, 400 ppm (+++ at 100 ppm)
[6] = test system: Erysiphe graminis tritici (powdery mildew); assay: Test 1 greenhouse foliar spray screen, powdery mildew on wheat; conditions: disease control rating, foliar spray on wheat, 400 ppm (+++ at 100 ppm)
[7] = test system: Botrytis cinerea (gray mold); assay: Test 1 greenhouse foliar spray screen, gray mold on grape berries; conditions: disease control rating, spray on grape berries, 400 ppm (+++ at 100 ppm)
[8] = test system: Pseudoperonospora cubensis (downy mildew); assay: Test 1 greenhouse foliar spray screen, downy mildew on squash; conditions: disease control rating, foliar spray on squash, 400 ppm (+++ at 100 ppm)
[9] = test system: corn rootworm; assay: Mite/insect screen, CRW; conditions: read-out: CRW RESULTS %; for mortality at 24 ppm: CRW RATE 24.00 PPM
Method in brief: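 Stock in acetone:alcohol 1:1 + TOXIMUL R 23 g/L + TOXIMUL S 13 g/L; diluted with water to indicated concentrations; mortality (%) after standard exposure.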

[10] = test system: Cercospora beticola (leaf spot); assay: Test 1 greenhouse foliar spray screen, leaf spot on sugar beet; conditions: disease control rating, foliar spray on sugar beet, 400 ppm (+++ at 100 ppm)
[11] = test system: Twospotted spider mites (Tetranychus urticae Koch); assay: Mite/insect screen, SM; conditions: for mortality at 200 ppm / mortality at 400 ppm: Tetranychus urticae, read-out: SM RESULTS %; for mortality at 400 ppm: SM & MA RATE 400 PPM
Method in brief: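 Read-out: percent mortality after standard exposure periods. Test solutions were water dilutions of compound dissolved in acetone/alcohol (50:50) with emulsifier blends; leaves were sprayed to runoff on both surfaces and air-dried for one hour before exposure.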

[12] = test system: Venturia inaequalis (apple scab); assay: Test 1 greenhouse foliar spray screen, apple scab on apple seedling; conditions: disease control rating, foliar spray on apple seedling, 400 ppm (+++ at 100 ppm)
[13] = percent mortality, SAW, SM & MA RATE 200 PPM
[14] = percent mortality, CRW RATE 12.00 PPM

Row | SMILES | LEAF RUST [1] | mortality at 200 ppm [2, 13] [%] | mortality at 200 ppm [3, 13] [%] | LEAF BLOT [4] | RICE BLAST [5] | POWD MDEW [6] | GRAY MOLD [7] | DOWN MDEW [8] | mortality at 12 ppm [9, 14] [%] | LEAF SPOT [10] | mortality at 200 ppm [11, 13] [%] | APPL SCAB [12] | mortality at 400 ppm ([2]; percent mortality, SAW) [%] | mortality at 400 ppm ([3]; percent mortality, SAW) [%] | mortality at 24 ppm ([9]; percent mortality) [%] | mortality at 400 ppm ([11]; percent mortality, SAW) [%] | further results
1 | COc1ccccc1CCNc1ccnc2ccccc12 [Example 55, N-[2-(2-methoxyphenyl)ethyl]-4-quinolinamine] | + (20-89% control at 400 ppm) | 0 | 0 | - (0-19% control at 400 ppm) | ++ (90-100% control at 400 ppm) | + (20-89% control at 400 ppm) | - (0-19% control at 400 ppm) | ++ (90-100% control at 400 ppm) | 0 | +++ (90-100% control at 100 ppm) | 0 | - (0-19% control at 400 ppm) |  |  |  |  | 
2 | Fc1ccc2nccc(NCCc3ccc(Cl)cc3)c2c1 [Example 56, N-[2-(4-chlorophenyl)ethyl]-6-fluoro-4-quinolinamine] | ++ (90-100% control at 400 ppm) | 0 | 100 | + (20-89% control at 400 ppm) | ++ (90-100% control at 400 ppm) | - (0-19% control at 400 ppm) | - (0-19% control at 400 ppm) | +++ (90-100% control at 100 ppm) | 0 | +++ (90-100% control at 100 ppm) | 0 | - (0-19% control at 400 ppm) | 0 | 80 | 0 | 0 | activity as miticides ([11]; summary statement in the description): particularly excellent activity
3 | Cc1cc(NCCc2ccc(Cl)cc2)c2cc(F)ccc2n1 [Example 57, N-[2-(4-chlorophenyl)ethyl]-2-methyl-6-fluoro-4-quinolinamine] | + (20-89% control at 400 ppm) | 0 | 40 | - (0-19% control at 400 ppm) | ++ (90-100% control at 400 ppm) | - (0-19% control at 400 ppm) | - (0-19% control at 400 ppm) | ++ (90-100% control at 400 ppm) | 0 | +++ (90-100% control at 100 ppm) | 0 | - (0-19% control at 400 ppm) | 0 | 50 | 0 | 0 | 
4 | Fc1cccc2c(NCC(c3ccccc3)C3CCCCC3)ccnc12 (stereo not drawn) [Example 62, 8-fluoro-N-(2-cyclohexyl-2-phenylethyl)-4-quinolinamine] | ++ (90-100% control at 400 ppm) |  |  | + (20-89% control at 400 ppm) | ++ (90-100% control at 400 ppm) | - (0-19% control at 400 ppm) | - (0-19% control at 400 ppm) | +++ (90-100% control at 100 ppm) |  | - (0-19% control at 400 ppm) |  | - (0-19% control at 400 ppm) | 0 | 0 | 0 | 0 | 
5 | Fc1cccc(F)c1CCNc1ccnc2c(F)cccc12 [Example 65, N-[2-(2,6-difluorophenyl)ethyl]-8-fluoro-4-quinolinamine] | ++ (90-100% control at 400 ppm) | 0 | 0 | + (20-89% control at 400 ppm) | + (20-89% control at 400 ppm) | + (20-89% control at 400 ppm) | - (0-19% control at 400 ppm) | +++ (90-100% control at 100 ppm) | 0 | - (0-19% control at 400 ppm) | 0 | - (0-19% control at 400 ppm) |  |  |  |  | 
6 | Fc1cccc(CCNc2ccnc3c(F)cccc23)c1 [Example 66, 8-fluoro-N-[2-(3-fluorophenyl)ethyl]-4-quinolinamine] | +++ (90-100% control at 100 ppm) | 0 | 0 | + (20-89% control at 400 ppm) | ++ (90-100% control at 400 ppm) | + (20-89% control at 400 ppm) | - (0-19% control at 400 ppm) | +++ (90-100% control at 100 ppm) | 0 | +++ (90-100% control at 100 ppm) | 0 | - (0-19% control at 400 ppm) |  |  |  |  | 
7 | COc1cc(CCNc2ccnc3ccccc23)cc(OC)c1 [Example 67, N-[2-(3,5-dimethoxyphenyl)ethyl]-4-quinolinamine] | + (20-89% control at 400 ppm) | 0 | 0 | - (0-19% control at 400 ppm) | + (20-89% control at 400 ppm) | - (0-19% control at 400 ppm) | - (0-19% control at 400 ppm) | ++ (90-100% control at 400 ppm) | 0 | + (20-89% control at 400 ppm) | 0 | - (0-19% control at 400 ppm) |  |  |  |  | 
8 | COc1ccccc1CCNc1ccnc2c(F)cccc12 [Example 68, 8-fluoro-N-[2-(2-methoxyphenyl)ethyl]-4-quinolinamine] | +++ (90-100% control at 100 ppm) | 0 | 0 | +++ (90-100% control at 100 ppm) | + (20-89% control at 400 ppm) | + (20-89% control at 400 ppm) | - (0-19% control at 400 ppm) | ++ (90-100% control at 400 ppm) | 0 | - (0-19% control at 400 ppm) | 0 | - (0-19% control at 400 ppm) |  |  |  |  | 
9 | Clc1cnc2ccccc2c1NCC(Cl)c1ccccc1 (stereo not drawn) [Example 69, 3-chloro-N-(2-chloro-2-phenylethyl)-4-quinolinamine] | + (20-89% control at 400 ppm) |  |  | - (0-19% control at 400 ppm) | + (20-89% control at 400 ppm) | + (20-89% control at 400 ppm) | - (0-19% control at 400 ppm) | +++ (90-100% control at 100 ppm) |  | - (0-19% control at 400 ppm) |  | - (0-19% control at 400 ppm) |  |  |  |  | mortality at 200 ppm [2]: 0%; mortality at 200 ppm [3]: 0%; mortality at 12 ppm [9]: 0%; mortality at 200 ppm [11]: 0%
